Data set [1] is described as follows: Plasma stability, mouse. The class given is in vitro ADME. The note with it: for Remaining percentage: after 30 minutes; for plasma stability: mouse plasma. The protocol:
The pH of the plasma was checked and recorded. Note: a.
The final concentration of solvent was 0.5%.
The assay is performed in duplicate.

The test system of data set [2] is PANC1 cells. As to the kind of experiment: Clonogenic assay, PANC1. The class given is cell-based, human. To be noted: for IC90: Homo sapiens, PANC-1, 3 h. The protocol: (§1) The following PSN-1 cells, PANC1 cells, MiaPaCa-2 cells, H460 cells, DLD-1 WT (wild type) cells, DLD-1 BRCA2 KO (BRCA2 deletion) cells were seeded in 10 cm vitreous cell culture plates at specific cell numbers and incubated for 2 days at 37° C. and under the conditions of 5% CO2, 95% air and 100% relative humidity. On day 3, test compounds TH302 or AST-002-P2 at the specific concentrations were added to the cells, and incubated for 3 hours together with the cells under normoxic (21% O2) and hypoxic conditions (<0.01% O2), respectively. After cells were stimulated by compounds, the cells were washed once with 1×PBS and digested into single cells with pancreatic enzymes for cell counting. The above cells in specific cell numbers were reseeded in a new culture plate and cultured for 7 days to perform single cell colony formation. When single cells in compound culture plates stimulated under normoxic conditions proliferated to about 50 cells, the cultures were removed and stained with 0.5% crystal violet for 40 minutes. After staining, cells were counted for colonies using Colony Counter (VWR) and the IC90 was calculated.

Data set [3] addresses P-gp (Homo sapiens, UniProt P08183). As to the kind of experiment: P-gp substrate evaluation, MDCKII-MDR1 penetration test. To be noted: for recovery at 2 h: dog; for Pgp substrate status: with and without verapamil. The protocol: (1) MDCKII-MDR1 cells were cultured in the cell culture bottle. The conditions of the incubator were 37° C., 5% of CO2, and 95% of the relative humidity. When the cell growth confluence was up to 70-90%, the cells were inoculated to the transwell.
The cell suspension was transferred to the upper compartment of the 96-well transwell, wherein each upper compartment contains 50 μL of the cell suspension. The final inoculum density was 5.45×10^5 cells/cm^2.
(1) The transwell culture plate of the MDCKII-MDRT cells was taken out from the incubator. The cell monolayer membrane was rinsed two times with the buffer solution and incubated at 37° C. for 30 min.
(2) The transport rate that the compound was transported from the top-end to the base-end was tested. 75 μL of the buffer solution contained the sample was added to each upper compartment (top-end), and 235 μL of the buffer solution was added to each lower compartment (base-end).
(3) The transport rate that the compound was transported from the base-end to the top-end was tested. 75 μL of the buffer solution was added to each upper compartment (top-end), and 235 μL of the buffer solution contained the sample was added to each lower compartment (base-end).
(6) The upper and lower transits were merged up and then incubated at 37° C. for 2 h.
(7) After the incubation was finished, 50 μL of the samples from each well of the upper compartment and the lower compartment of the transwell culture plate were respectively added to new sample tubes. 200 μL of the acetonitrile containing the internal standard (100 nM Alprazolam, 200 nM Labetalol, 200 nM caffeine and 2 μM Ketoprofen) was added to each sample tube. After the sample tubes were vortexed for 10 min, they were centrifuged at 3220 g for 30 min. 100 μL of the supernatant was taken and diluted with the same volume of the water to perform the LC-MS/MS analysis. Each sample was adopted to the three parallel incubation.
The peak area was calculated by the result of the ion chromatography. The permeability coefficient (Papp, unit: cm/s×10^−6) of the compound was calculated by the formula: […]
In the formula, “VA” refers to the volume of the solution on the acceptor (Ap→Bl was 0.235 mL, and Bl→Ap was 0.075 mL), “Area” refers to the area of the permeable membrane of the 96-well transwell (0.143 cm^2), “time” refers to the incubation time (in second), “[drug]acceptor” refers to the drug concentration of the acceptor after the incubation, and “[drug]initial, donor” refers to the initial concentration of the drug administration before the incubation.
The efflux ratio was calculated by the following formula: […]
In the formula, “Papp (B-A)” refers to the permeability coefficient from the base-end to the top-end, and the term “Papp (A-B)” refers to the permeability coefficient from the top-end to the base-end.
The recovery was calculated by the following formula: […]
In the formula, “VA” refers to the volume of the solution on the acceptor (mL), “VD” refers to the volume of the solution on the donor (mL), “[drug]acceptor” refers to the drug concentration of the acceptor after the incubation, “[drug]donor” refers to the drug concentration of the donor after the incubation, and the term “[drug]initial, donor” refers to the initial concentration of the drug administration before the incubation.

In data set [4] the test system is MiaPaCa-2 cells. The data set can be described thus: Clonogenic assay, MiaPaCa-2. The class given is cell-based, human. To be noted: for IC90: Homo sapiens, MIA PaCa-2, 3 h. The protocol: as §1
Setting [5] is: 21% O2, read-out: IC90 Normoxia.
The mark [6] stands for this setting: <0.01% O2, read-out: IC90 Hypoxia.
[7] abbreviates: MDCK-MDR1, Recovery (%) AP-BL, verapamil 0 μM.
Setting [8] is: MDCK-MDR1, Recovery (%) AP-BL, verapamil 100 μM.
Setting [9] is: MDCK-MDR1, Recovery (%) BL-AP, verapamil 100 μM.

From patent publication US20230339991A1, “HYPOXIA-ACTIVATED DNA ALKYLATING AGENT AND MEDICAL USE THEREOF” (ASCENTAWITS PHARMACEUTICALS, LTD., priority 2020, published 2023) come the findings set out here.

Values joined by “and” are separate entries in the source; they are usually repeats but may differ in a detail not shown here. Identical values can stand only once. Like-named read-outs stand apart in the source and are kept apart here. Bounds are passed on as bounds.

Chain of P-gp (P08183 whole entry): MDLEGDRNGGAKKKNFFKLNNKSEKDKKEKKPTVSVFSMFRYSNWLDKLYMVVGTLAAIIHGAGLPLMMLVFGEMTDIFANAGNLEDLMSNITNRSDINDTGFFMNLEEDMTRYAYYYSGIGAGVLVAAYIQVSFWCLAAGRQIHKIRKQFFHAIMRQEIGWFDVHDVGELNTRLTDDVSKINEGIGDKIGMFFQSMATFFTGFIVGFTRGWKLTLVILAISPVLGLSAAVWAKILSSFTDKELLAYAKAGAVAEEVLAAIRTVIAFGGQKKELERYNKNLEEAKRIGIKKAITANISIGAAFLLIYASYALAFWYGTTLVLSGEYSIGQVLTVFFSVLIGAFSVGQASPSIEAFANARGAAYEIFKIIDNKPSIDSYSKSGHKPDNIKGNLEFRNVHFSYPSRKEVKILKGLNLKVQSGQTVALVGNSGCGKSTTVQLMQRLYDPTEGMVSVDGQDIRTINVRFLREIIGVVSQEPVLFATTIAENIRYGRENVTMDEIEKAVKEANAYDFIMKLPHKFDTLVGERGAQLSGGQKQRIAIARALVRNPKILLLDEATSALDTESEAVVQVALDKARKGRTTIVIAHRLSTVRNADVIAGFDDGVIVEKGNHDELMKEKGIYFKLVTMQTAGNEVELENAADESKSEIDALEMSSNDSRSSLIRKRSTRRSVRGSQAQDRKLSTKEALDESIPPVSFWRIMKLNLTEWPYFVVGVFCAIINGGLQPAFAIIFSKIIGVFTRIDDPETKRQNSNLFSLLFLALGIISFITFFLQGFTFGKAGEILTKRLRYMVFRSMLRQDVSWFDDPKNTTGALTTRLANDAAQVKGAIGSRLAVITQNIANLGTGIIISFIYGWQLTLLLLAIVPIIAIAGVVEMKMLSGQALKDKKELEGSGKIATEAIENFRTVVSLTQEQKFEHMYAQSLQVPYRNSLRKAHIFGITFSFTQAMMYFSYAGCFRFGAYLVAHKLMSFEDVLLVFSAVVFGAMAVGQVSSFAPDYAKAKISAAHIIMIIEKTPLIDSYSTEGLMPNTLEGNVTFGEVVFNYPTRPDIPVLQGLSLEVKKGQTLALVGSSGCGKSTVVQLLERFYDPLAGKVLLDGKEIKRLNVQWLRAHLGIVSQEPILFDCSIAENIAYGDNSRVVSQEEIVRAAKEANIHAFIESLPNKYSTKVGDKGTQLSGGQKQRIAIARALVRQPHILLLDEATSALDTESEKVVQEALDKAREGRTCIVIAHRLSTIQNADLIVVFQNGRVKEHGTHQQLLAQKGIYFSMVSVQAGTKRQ

With `O=[N+]([O-])c1ccc(C(OP(=O)(N2CC2)N2CC2)C(F)(F)F)c2ccccc12` (racemic) [Compound A], the “Remaining percentage (%)” value in data set [1] (Mouse plasma, 15 min) is 104 ± 2.96%; in data set [1] (Mouse plasma, 60 min), 86.6 ± 3.16%; in data set [1] (Mouse plasma, 90 min), 76.9 ± 2.40%; in data set [1] (Mouse plasma, 120 min), 66.4% and 66.4 ± 0.993%; in data set [1] (Mouse plasma, 2 h time course, 0 min), 100%; in data set [1] (Mouse plasma, time course, 30 min), 97.7 ± 4.71%. Besides, in data set [1] (Mouse plasma), the Remaining percentage amounted to 55.07%. For the same molecule, the half-life at 5 µM in data set [1] (Mouse plasma, in vitro, read-out: t½) is 3.15 h. Moreover, in data set [1], the “plasma stability” value is given as “unstable”.
Regarding `O=[N+]([O-])c1ccc([C@@H](OP(=O)(N2CC2)N2CC2)C(F)(F)F)c2ccccc12` (single isomer, unassigned) [Compound C], the IC90 was more than 10 µM in data set [2] (setting [5]), more than 1 µM in data set [2] (setting [6]), more than 10 µM in data set [4] (setting [5]) and 0.159 µM in data set [4] (setting [6]). Also, the results for the recovery at 2 h in data set [3] (setting [7]), in data set [3] (setting [8]) and in data set [3] (setting [9]) were 57.8%, 61.5% and 66.3%, respectively. Besides, the Pgp substrate status entry in data set [3] is “not substrates for Pgp”. The HCR in data set [4] (IC90 ratio normoxic/N2) is listed as more than 63; in data set [4] (IC90 ratio normoxic/N2, listed as compound C), more than 63.
Take `O=[N+]([O-])c1ccc([C@H](OP(=O)(N2CC2)N2CC2)C(F)(F)F)c2ccccc12` [Compound B]: the recovery at 2 h was 59.3% in data set [3] (setting [7]), 65.2% in data set [3] (setting [8]) and 68.3% in data set [3] (setting [9]). Moreover, the Pgp substrate status entry in data set [3] is “not substrates for Pgp”.
Molecule `CC(OP(=O)(N1CC1)N1CC1)c1ccc([N+](=O)[O-])c2ccccc12` (stereo not shown) [Compound D] had a Remaining percentage in data set [1] (Mouse plasma) of 87.35%. In addition, the “plasma stability” value in data set [1] was “relatively unstable”.
Consider `Cn1c(COP(=O)(NCCBr)NCCBr)cnc1[N+](=O)[O-]` [TH-302, Evofosfamide], for which the IC90 was more than 100 µM in data set [2] (setting [5]), 7.29 µM in data set [2] (setting [6]), 9.68 µM in data set [4] (setting [5]) and 0.388 µM in data set [4] (setting [6]). The HCR is listed as more than 13.7 in data set [2] (IC90 ratio normoxic/N2) and 25 in data set [4] (IC90 ratio normoxic/N2).
